Assay results: patent US11202757B2, “Dry powder compositions for intranasal delivery” (Formulex Pharma Innovations Ltd., priority 2017, dated 2021)
Structures can show the parent of a compound that is named as a salt.

Assay: Particle size analysis (Malvern laser diffraction)
Type: physicochemical
Conditions: for size range of the active agent particle population: laser diffraction, active agent population of the composition
Protocol: (§1) The spray-drying process was carried out using the Mini Spray Dryer B-290 of Büchi Labortechnik AG. A magnetic stirrer (Fried Electric) was placed under the receiver (receiving chamber), a magnetic bar of appropriate size was inserted into the receiver, and then the diluent was added. […] Quantification was performed using HPLC and a Dionex HPLC instrument. A FEI Quanta-200 Scanning Electron Microscope (SEM) equipped with an Everhart-Thornley Detector was used to obtain the images of the spray-dried powder. The accelerating voltage of 20 kV was applied to provide magnification from 250 to 10,000 times. In addition, an X-ray Element Analysis Detector (Link ISIS, Oxford Instruments, GB) was used to determine the drug and particle identity and their distribution throughout DPI. Particle size was measured using the Malvern Mastersizer 3000 series based on the Light Diffraction method.
as §1, with “England)” for “GB)”

[1] = estimated in the range of 0-40 μm

Compound	size range of the active agent particle population	D(10) of sumatriptan succinate alone [1]	D(50) of sumatriptan succinate alone [1]	D(90) of sumatriptan succinate alone [1]	D(99) of sumatriptan succinate alone [1]
C=CCN1CC[C@]23c4c5ccc(O)c4O[C@H]2C(=O)CC[C@@]3(O)[C@H]1C5 [naloxone hydrochloride]	5-30 μm	–	–	–	–
COc1ccc2c3c1O[C@H]1C(=O)CC[C@@]4(O)[C@@H](C2)N(C)CC[C@]314.Cl [oxycodone hydrochloride]	3-30 μm	–	–	–	–
CC(=O)Nc1ccc(O)cc1 [paracetamol]	2-30 μm	–	–	–	–
CNS(=O)(=O)Cc1ccc2[nH]cc(CCN(C)C)c2c1 [sumatriptan succinate]	5-25 μm	5.2 μm	11.2 μm	20.1 μm	27.1 μm
insulin-sodium chloride: small spherical particles of insulin-sodium chloride in the insulin composition	5-35 μm	–	–	–	–
